Experimental data reported in ChEMBL document CHEMBL1926617, “Antifungal activities of novel non-azole molecules against S. cerevisiae and C. albicans” (Eur J Med Chem, 2012).
In brackets after ≈: the same amount, converted by molar mass. Activity calls are given as the source filed them. The calls are words filed in the database; no cut-off is given here.

Experiments:
Cytochrome P450 3A4 = Cytochrome P450 3A4 (Homo sapiens, UniProt P08684); assay: Inhibition of human recombinant CYP3A4; assay type: ADME
Cytochrome P450 3A4, sequence (P08684 whole entry): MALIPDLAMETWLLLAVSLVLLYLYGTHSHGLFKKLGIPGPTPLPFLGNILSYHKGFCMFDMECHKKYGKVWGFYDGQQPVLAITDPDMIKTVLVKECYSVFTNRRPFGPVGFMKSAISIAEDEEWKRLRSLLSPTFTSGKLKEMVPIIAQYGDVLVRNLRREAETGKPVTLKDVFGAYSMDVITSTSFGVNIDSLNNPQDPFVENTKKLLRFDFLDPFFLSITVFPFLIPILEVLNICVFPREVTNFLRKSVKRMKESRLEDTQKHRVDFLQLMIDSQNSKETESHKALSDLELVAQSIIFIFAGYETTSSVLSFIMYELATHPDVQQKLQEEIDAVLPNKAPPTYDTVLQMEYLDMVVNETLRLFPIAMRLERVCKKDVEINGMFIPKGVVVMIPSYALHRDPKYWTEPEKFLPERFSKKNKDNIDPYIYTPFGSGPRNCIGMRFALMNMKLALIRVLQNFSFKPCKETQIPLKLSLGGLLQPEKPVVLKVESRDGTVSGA

Cytochrome P450 1A2 = molecular target: T1, Cytochrome P450 1A2 (Homo sapiens, UniProt P05177); assay: Inhibition of human recombinant CYP1A2; assay type: ADME
T1 sequence (P05177 whole entry): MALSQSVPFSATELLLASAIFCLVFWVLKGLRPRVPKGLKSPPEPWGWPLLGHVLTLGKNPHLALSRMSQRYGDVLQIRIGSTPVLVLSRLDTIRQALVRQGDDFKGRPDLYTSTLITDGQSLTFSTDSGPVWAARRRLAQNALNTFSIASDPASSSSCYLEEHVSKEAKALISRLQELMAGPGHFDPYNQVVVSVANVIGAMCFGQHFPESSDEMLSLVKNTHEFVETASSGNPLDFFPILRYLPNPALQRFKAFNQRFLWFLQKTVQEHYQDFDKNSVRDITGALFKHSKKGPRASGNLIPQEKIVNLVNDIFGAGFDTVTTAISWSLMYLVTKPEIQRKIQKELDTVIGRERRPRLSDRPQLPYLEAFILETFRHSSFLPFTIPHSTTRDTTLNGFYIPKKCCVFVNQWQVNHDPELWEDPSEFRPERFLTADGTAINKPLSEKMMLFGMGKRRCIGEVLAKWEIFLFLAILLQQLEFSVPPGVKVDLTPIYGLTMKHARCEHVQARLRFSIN

Cytochrome P450 2C9 = Cytochrome P450 2C9 (Homo sapiens, UniProt P11712); assay: Inhibition of human recombinant CYP2C9; assay type: ADME
Cytochrome P450 2C9, sequence (P11712 whole entry): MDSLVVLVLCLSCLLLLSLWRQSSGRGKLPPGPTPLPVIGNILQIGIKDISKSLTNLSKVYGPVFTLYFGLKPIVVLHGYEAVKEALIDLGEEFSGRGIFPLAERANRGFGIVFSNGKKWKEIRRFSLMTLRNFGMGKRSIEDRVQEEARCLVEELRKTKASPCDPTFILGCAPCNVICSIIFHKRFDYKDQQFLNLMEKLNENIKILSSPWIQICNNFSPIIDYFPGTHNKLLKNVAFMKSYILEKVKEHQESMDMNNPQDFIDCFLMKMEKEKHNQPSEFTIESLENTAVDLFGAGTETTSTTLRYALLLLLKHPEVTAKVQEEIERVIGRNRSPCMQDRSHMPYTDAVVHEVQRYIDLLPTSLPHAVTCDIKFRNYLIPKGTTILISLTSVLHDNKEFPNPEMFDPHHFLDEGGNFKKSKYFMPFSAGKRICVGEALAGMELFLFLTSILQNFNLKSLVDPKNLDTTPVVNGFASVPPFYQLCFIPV

Saccharomyces cerevisiae [1] = assay: Antifungal activity against Saccharomyces cerevisiae ATCC 24657 assessed as growth inhibition after 24 to 48 hrs by agar plate bioassay; assay type: functional
Cytochrome P450 2D6 = Cytochrome P450 2D6 (Homo sapiens, UniProt P10635); assay: Inhibition of human recombinant CYP2D6; assay type: ADME
Cytochrome P450 2D6, sequence (P10635 whole entry): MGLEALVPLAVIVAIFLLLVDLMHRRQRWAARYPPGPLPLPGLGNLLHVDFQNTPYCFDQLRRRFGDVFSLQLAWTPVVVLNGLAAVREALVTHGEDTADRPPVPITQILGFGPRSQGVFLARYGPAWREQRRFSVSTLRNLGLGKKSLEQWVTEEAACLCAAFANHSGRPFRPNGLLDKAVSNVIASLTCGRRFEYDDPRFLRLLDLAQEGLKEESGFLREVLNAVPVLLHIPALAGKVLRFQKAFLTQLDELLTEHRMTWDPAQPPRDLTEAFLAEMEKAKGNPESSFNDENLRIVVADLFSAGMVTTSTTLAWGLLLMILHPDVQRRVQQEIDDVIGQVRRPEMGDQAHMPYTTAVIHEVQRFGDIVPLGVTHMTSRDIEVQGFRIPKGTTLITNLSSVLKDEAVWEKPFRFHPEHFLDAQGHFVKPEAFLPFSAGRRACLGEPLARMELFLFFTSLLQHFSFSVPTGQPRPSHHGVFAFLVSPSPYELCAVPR

Candida albicans [2] = assay: Antifungal activity against Candida albicans ATCC 32032 assessed as growth inhibition after 24 to 48 hrs by agar plate bioassay; assay type: functional
Saccharomyces cerevisiae [3] = assay: Fungistatic activity against Saccharomyces cerevisiae ATCC 24657 assessed as cell proliferation at 100 uM after 24 hrs by spectrophotometric bioassay; assay type: functional, organism-based
Saccharomyces cerevisiae [4] = assay: Fungistatic activity against Saccharomyces cerevisiae ATCC 24657 assessed as cell proliferation at 100 uM after 24 hrs by agar plate bioassay relative to control; assay type: functional; settings: ATCC 24657, 24 h
Saccharomyces cerevisiae [5] = assay: Fungistatic activity against Saccharomyces cerevisiae ATCC 24657 assessed as cell growth at 100 uM after 48 hrs by spectrophotometric bioassay; assay type: functional, organism-based
Cytochrome P450 2C19 = Cytochrome P450 2C19 (Homo sapiens, UniProt P33261); assay: Inhibition of human recombinant CYP2C19; assay type: ADME
Cytochrome P450 2C19, sequence (P33261 whole entry): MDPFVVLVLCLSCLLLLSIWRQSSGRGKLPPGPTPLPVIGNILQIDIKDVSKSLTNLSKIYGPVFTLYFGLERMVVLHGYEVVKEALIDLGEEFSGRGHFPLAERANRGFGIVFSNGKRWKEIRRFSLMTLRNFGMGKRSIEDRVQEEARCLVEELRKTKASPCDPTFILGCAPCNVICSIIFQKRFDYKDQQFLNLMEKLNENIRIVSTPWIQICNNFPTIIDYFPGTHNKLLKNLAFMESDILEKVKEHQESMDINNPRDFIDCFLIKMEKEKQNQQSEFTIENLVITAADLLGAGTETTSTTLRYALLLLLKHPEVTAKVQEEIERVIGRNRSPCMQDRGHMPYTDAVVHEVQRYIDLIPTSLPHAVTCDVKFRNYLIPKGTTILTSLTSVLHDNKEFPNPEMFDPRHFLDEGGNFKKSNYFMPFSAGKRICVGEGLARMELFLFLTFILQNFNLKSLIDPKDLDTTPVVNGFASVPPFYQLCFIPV

Candida albicans [6] = assay: Antifungal activity against Candida albicans assessed as morphogenetic transformation after 3 hrs by phase-contrast microscopy; assay type: functional
Saccharomyces cerevisiae [7] = assay: Fungistatic activity against Saccharomyces cerevisiae ATCC 24657 assessed as cell proliferation compound after 24 to 48 hrs by agar plate bioassay; assay type: functional, organism-based
Saccharomyces cerevisiae [8] = assay: Antifungal activity against Saccharomyces cerevisiae ATCC 24657 assessed as growth inhibition after 24 to 48 hrs by spectrophotometric bioassay; assay type: functional
Saccharomyces cerevisiae [9] = assay: Fungistatic activity against Saccharomyces cerevisiae ATCC 24657 assessed as cell proliferation compound after 24 to 48 hrs by spectrophotometric bioassay; assay type: functional, organism-based
Saccharomyces cerevisiae [10] = assay: Antifungal activity against Saccharomyces cerevisiae ATCC 24657 assessed as growth inhibition at 31.2 uM after 24 to 48 hrs by agar plate bioassay; assay type: functional, organism-based
Saccharomyces cerevisiae [11] = assay: Antifungal activity against Saccharomyces cerevisiae ATCC 24657 assessed as growth inhibition at 31.2 uM after 24 to 48 hrs by spectrophotometric bioassay; assay type: functional, organism-based

COc1ccc(-c2sc(/N=C/c3ccc(N(C)CCC#N)cc3)c(C#N)c2C)cc1OC
IC50 (Cytochrome P450 3A4): 33.2 µM | IC50 (Cytochrome P450 1A2): 11.9 µM | IC50 (Cytochrome P450 2C9): 1.2 µM | MIC (Saccharomyces cerevisiae [1]): 118 µM (≈ 52.5 µg/mL) | MIC50 (Saccharomyces cerevisiae [1]): 2.7 µM (≈ 1.2 µg/mL) | IC50 (Cytochrome P450 2D6): 23.3 µM | MIC (Candida albicans [2]): 12 µM (≈ 5.33 µg/mL) | Activity (Saccharomyces cerevisiae [3]): Active | inhibition at 100 µM (Saccharomyces cerevisiae [4]): 95% | Activity (Saccharomyces cerevisiae [5]): inactive | IC50 (Cytochrome P450 2C19): 1.1 µM

c1ccc(Cc2ccncc2)cc1
MIC (Saccharomyces cerevisiae [1]): > 200 µM | MIC50 (Saccharomyces cerevisiae [1]): 100 µM (≈ 16.9 µg/mL)

CN(C/C=C/C#CC(C)(C)C)Cc1cccc2ccccc12 [TERBINAFINE]
MIC (Candida albicans [6]): 439 µM (≈ 128 µg/mL)

OC(Cn1cncn1)(Cn1cncn1)c1ccc(F)cc1F [FLUCONAZOLE]
MIC (Candida albicans [6]): 104 µM (≈ 32 µg/mL)

C=CCSc1ncccc1C1=NN(CC(=O)N(CCC(=O)OCC)Cc2ccco2)C(=O)C1
MIC (Saccharomyces cerevisiae [1]): > 200 µM

Cc1ccc(C(=O)N(C)Cc2ccco2)c(C2CCN(C(=O)/C=C/c3cccs3)CC2)n1
MIC (Saccharomyces cerevisiae [1]): > 200 µM

COc1ccc(C(=O)CCC(=O)N2CCC(c3nc(C(=O)Nc4ccc(O)c(C)c4C)cs3)CC2)cc1
MIC (Saccharomyces cerevisiae [1]): > 200 µM

Cc1ccc(C(=O)N(C)Cc2ccco2)c(C2CCN(C(=O)c3cc(O)nc4ccccc34)CC2)n1
MIC (Saccharomyces cerevisiae [1]): > 200 µM

Cc1ccc(C(=O)CC(Sc2ccc3ccccc3c2)c2ccsc2)cc1 (stereo not given)
MIC (Saccharomyces cerevisiae [1]): > 150 µM

COC(=O)c1scc(C)c1NC(=O)c1ccc(C(C)(C)C)cc1
MIC (Saccharomyces cerevisiae [1]): > 200 µM

Cc1ccc(C(=O)N(C)Cc2ccco2)c(C2CCN(C(=O)c3cc(C)c(C)o3)CC2)n1
MIC (Saccharomyces cerevisiae [1]): > 200 µM

FC(F)(F)Oc1ccc(C2c3ccsc3CCN2Cc2ccc3c(c2)CCO3)cc1 (stereo not given)
MIC50 (Saccharomyces cerevisiae [1]): 120 µM (≈ 51.8 µg/mL)

C=CCNc1ncnc2sc3c(c12)CCCC3
growth inhibition (GI) (Saccharomyces cerevisiae [1]): inactive | Activity (Saccharomyces cerevisiae [7]): inactive | MIC (Saccharomyces cerevisiae [8]): 100 µM (≈ 24.5 µg/mL) | MIC50 (Saccharomyces cerevisiae [8]): 9.98 µM (≈ 2.45 µg/mL) | Activity (Saccharomyces cerevisiae [9]): inactive

CN(CCC#N)c1ccc(/C=N/c2ccc(C(=O)O)cc2)cc1
MIC (Saccharomyces cerevisiae [1]): > 200 µM

C=CCn1c(SCC(=O)c2ccccc2)nc2sc3c(c2c1=O)CCC(C)C3 (stereo not given)
MIC (Saccharomyces cerevisiae [1]): > 200 µM

COC(C)(C)CCSc1nc2ccc(NC(=O)CCCC(=O)NCc3ccco3)cc2s1
MIC (Saccharomyces cerevisiae [1]): > 200 µM

Cc1nc(SCc2c(F)cccc2Cl)c(C#N)c(C)c1Cc1c(F)cccc1Cl
MIC (Saccharomyces cerevisiae [1]): > 200 µM

COc1cc(C(=O)N(CCC#N)C2CC(C)CC(C)(C)C2)cc(OC)c1OC (stereo not given)
MIC (Saccharomyces cerevisiae [1]): > 200 µM

COc1ccc(NC(=S)N/N=C/c2ccc(N(C)CCC#N)cc2)cc1
MIC (Saccharomyces cerevisiae [1]): > 200 µM

CC(=O)N1CCN(c2ccc(OCC3COC(Cn4ccnc4)(c4ccc(Cl)cc4Cl)O3)cc2)CC1 (stereo not given)
Activity (Saccharomyces cerevisiae [7]): inactive | growth inhibition (GI) (Saccharomyces cerevisiae [10]): Active | Activity (Saccharomyces cerevisiae [9]): inactive | growth inhibition (GI) (Saccharomyces cerevisiae [11]): Active

Clc1ccc(Cc2ccncc2)cc1
MIC (Saccharomyces cerevisiae [1]): 150 µM (≈ 30.6 µg/mL) | MIC50 (Saccharomyces cerevisiae [1]): 18 µM (≈ 3.67 µg/mL)

CC1=C(C#N)C(c2sc3ccccc3c2C)C2=C(CCCC2=O)N1 (stereo not given)
MIC (Saccharomyces cerevisiae [1]): > 250 µM | MIC50 (Saccharomyces cerevisiae [1]): 118 µM (≈ 39.5 µg/mL)

Cc1c(-c2ccccc2)sc(/N=C/c2cc(Cl)cc(Cl)c2O)c1C#N
MIC (Candida albicans [2]): 40 µM (≈ 15.5 µg/mL)

O=C(CC(Sc1ccc2ccccc2c1)c1ccsc1)c1ccc(Cl)cc1 (stereo not given)
MIC (Saccharomyces cerevisiae [1]): > 200 µM

Clc1ccc(COC(Cn2ccnc2)c2ccc(Cl)cc2Cl)c(Cl)c1 (stereo not given) [MICONAZOLE]
MIC (Candida albicans [6]): 76.9 µM (≈ 32 µg/mL)

Cc1ccc(C(=O)N(C)Cc2ccco2)c(C2CCN(C(=O)c3cc4c(C)nn(C)c4s3)CC2)n1
MIC (Saccharomyces cerevisiae [1]): > 200 µM

Cc1ccc(Cc2cc(C)ncc2C)c(C)c1
MIC (Saccharomyces cerevisiae [1]): 100 µM (≈ 22.5 µg/mL) | MIC50 (Saccharomyces cerevisiae [1]): 14 µM (≈ 3.15 µg/mL)

CN(CCC#N)c1ccc(/C=C2\CC/C(=C\c3ccc(N(C)CCC#N)cc3)C2=O)cc1
MIC (Saccharomyces cerevisiae [1]): > 200 µM

COc1ccc(-c2sc(/N=C/c3ccc(-c4ccccc4)cc3)c(C#N)c2C)cc1OC
IC50 (Cytochrome P450 3A4): > 100 µM | IC50 (Cytochrome P450 1A2): 26 µM | IC50 (Cytochrome P450 2C9): 1.4 µM | IC50 (Cytochrome P450 2D6): > 100 µM | MIC (Candida albicans [2]): 8 µM (≈ 3.51 µg/mL) | IC50 (Cytochrome P450 2C19): 2.3 µM
